Test results reported in US20220380375A1, “SUBSTITUTED AROMATIC FUSED RING DERIVATIVE AND COMPOSITION COMPRISING SAME, AND USE THEREOF” (Shenzhen TargetRx, Inc., priority 2019, published 2022).

Key:
Format in all cases: cell-based
Ba/F3 KIF5B-RET cells [1] = biological target: T1, Ba/F3 KIF5B-RET cells (Homo sapiens, UniProt P07949); assay: Cytotoxicity assay (CellTiter-Glo), Ba/F3 KIF5B-RET; conditions: CellTiter-Glo, 72 hrs; read-out: Ba/F3 KIF5B-RET IC50
T1 construct: Ba/F3 KIF5B-RET IC50 (nM); other: CellTiter-Glo, 72 hrs; fused on or other part: P33176 (Kinesin-1 heavy chain)
T1 sequence (P07949 whole entry, change not shown, the tested form may be a part): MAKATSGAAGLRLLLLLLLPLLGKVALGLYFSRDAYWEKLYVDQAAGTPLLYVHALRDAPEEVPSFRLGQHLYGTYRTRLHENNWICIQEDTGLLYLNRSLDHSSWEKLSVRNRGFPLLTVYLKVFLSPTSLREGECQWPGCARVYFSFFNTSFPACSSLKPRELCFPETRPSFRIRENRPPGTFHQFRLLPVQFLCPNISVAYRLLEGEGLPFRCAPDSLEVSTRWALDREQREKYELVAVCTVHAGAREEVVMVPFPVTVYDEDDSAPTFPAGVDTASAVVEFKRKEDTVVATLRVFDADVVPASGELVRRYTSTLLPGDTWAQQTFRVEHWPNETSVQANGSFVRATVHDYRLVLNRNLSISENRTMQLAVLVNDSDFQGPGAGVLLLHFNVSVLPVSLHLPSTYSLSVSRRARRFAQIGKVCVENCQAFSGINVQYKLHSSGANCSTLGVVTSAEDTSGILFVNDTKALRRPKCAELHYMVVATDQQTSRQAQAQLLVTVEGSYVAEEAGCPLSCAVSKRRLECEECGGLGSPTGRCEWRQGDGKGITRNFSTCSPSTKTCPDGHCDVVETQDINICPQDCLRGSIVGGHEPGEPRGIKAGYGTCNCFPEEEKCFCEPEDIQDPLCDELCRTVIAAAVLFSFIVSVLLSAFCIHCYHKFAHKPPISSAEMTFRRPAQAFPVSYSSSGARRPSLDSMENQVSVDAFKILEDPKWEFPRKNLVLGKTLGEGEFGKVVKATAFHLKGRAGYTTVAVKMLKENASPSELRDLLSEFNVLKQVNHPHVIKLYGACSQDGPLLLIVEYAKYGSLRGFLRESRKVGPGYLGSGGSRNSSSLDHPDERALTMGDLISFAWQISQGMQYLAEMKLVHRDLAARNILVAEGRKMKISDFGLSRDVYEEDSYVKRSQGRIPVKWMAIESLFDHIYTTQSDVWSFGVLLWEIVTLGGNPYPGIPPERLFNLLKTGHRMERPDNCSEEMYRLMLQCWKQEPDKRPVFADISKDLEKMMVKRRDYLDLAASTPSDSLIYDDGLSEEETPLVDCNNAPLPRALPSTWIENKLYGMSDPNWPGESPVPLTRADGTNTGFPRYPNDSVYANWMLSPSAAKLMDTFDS
Protocol: (§1) Inhibitory effects of example compounds on the activity of Ba/F3 parental generation, Ba/F3 KIF5B-RET, Ba/F3 KIF5B-RET^V804M, Ba/F3 KIF5B-RET^V804L, Ba/F3 KIF5B-RET^G810R, Ba/F3 FLT3-ITD, Ba/F3 FLT3-ITD^D835Y, Ba/F3 FLT3-ITD^F691L cells were determined.
(§2) Materials and reagents: fetal bovine serum FBS (GIBCO, Cat #10099141), CellTiter-Glo® Luminescent Cell Viability Assay kit (Promega, Cat #G7572), 96-well black-wall clear flat-bottom plate (Corning®, Cat #3603).
(§3) 1. Cells in the logarithmic growth phase were harvested and counted with a […]. Cell viability was detected by a trypan blue exclusion method, ensuring that cell viability was 90% or more; 2. Cell concentration was adjusted to about 3000 cells/well; 90 μl of cell suspension was added to each well of the 96-well plate; 3. The cells in the 96-well plate were incubated overnight under the condition of 37° C., 5% CO2, and 95% humidity.
(§4) 1. A series of compound solutions were formulated by 3.16-fold serial dilution starting from a concentration of 10 μM, resulting in 9 concentrations. 10 μL of the compound solutions were added in each well of the 96-well plate seeded with cells in triplicate for each compound concentration; 2. The cells in the 96-well plate added with compounds were further incubated under the condition of 37° C., 5% CO2, and 95% humidity for 72 hrs, and then CTG analysis was carried out.
(§5) 1. CTG reagent was thawed, and the cell plate was equilibrated at room temperature for 30 minutes; 2. An equal volume […] of CTG solution was added to each well; 3. The cell plate was shaken on an orbital shaker for 5 minutes to lyse the cells; 4. The cell plate was placed at RT for 20 minutes to stabilize the luminescence signal; 5. Luminescence value was read.
(§6) Data were Analyzed by GraphPad Prism 5.0 Software, and Fitted by Nonlinear S-Curve Regression to obtain a dose-response curve, from which IC50 values were calculated.
(§7) Cell survival rate (%)=(luminescence value of drug to be tested−luminescence value of culture medium control)/(luminescence value of cell control−luminescence value of culture medium control)×100%.

Ba/F3 KIF5B-RET cells [2] = assay: as above; conditions: ratio of Ba/F3 parental IC50 to Ba/F3 KIF5B-RET IC50
Protocol: as §1, §2, §3, §4, §5, §6, §7

[3] = biological target: T2, Ba/F3 FLT3-ITD^F691L cells (Homo sapiens, UniProt P36888, F691L, cells depend on it, form not given); assay: Cytotoxicity assay (CellTiter-Glo), Ba/F3 FLT3-ITD F691L; conditions: CellTiter-Glo, 72 hrs; read-out: Ba/F3 FLT3-ITD^F691L IC50
T2 construct: Ba/F3 FLT3-ITD^F691L IC50 (nM); other: CellTiter-Glo, 72 hrs
T2 sequence (P36888 1-993 F691L): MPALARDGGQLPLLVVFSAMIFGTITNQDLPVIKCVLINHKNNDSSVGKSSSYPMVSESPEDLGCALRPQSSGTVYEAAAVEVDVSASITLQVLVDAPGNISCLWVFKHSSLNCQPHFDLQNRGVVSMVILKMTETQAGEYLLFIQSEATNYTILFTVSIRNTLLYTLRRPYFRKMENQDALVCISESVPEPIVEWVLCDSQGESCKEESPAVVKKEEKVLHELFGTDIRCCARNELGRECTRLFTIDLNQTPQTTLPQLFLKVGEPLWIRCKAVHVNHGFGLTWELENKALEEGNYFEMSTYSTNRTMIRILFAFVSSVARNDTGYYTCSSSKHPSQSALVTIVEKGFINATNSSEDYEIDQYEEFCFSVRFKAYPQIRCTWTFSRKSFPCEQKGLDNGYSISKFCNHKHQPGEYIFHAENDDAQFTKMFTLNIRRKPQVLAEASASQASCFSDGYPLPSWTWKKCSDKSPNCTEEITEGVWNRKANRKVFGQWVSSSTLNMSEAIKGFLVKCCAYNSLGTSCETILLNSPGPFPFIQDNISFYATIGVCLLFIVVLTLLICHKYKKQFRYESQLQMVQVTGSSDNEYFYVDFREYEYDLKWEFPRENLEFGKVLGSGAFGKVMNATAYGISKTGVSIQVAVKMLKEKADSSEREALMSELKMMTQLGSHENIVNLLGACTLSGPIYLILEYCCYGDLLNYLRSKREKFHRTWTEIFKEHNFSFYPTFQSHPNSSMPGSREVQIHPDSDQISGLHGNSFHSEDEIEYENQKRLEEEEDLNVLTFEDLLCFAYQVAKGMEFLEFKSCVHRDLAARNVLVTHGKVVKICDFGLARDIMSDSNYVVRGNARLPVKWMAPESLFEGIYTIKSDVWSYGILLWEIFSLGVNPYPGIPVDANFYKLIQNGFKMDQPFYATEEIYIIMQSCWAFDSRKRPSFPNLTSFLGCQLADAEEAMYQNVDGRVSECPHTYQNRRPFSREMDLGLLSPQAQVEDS
Protocol: as §1, §2, §3, §4, §5, §6, §7

[4] = test system: Ba/F3 FLT3-ITD^F691L cells; assay: as above; conditions: ratio of Ba/F3 parental IC50 to Ba/F3 FLT3-ITD^F691L IC50
Protocol: as §1, §2, §3, §4, §5, §6, §7

Structure (SMILES) | GI50 (Ba/F3 KIF5B-RET cells [1]) [nM] | Ba/F3 KIF5B-RET Selectivity on parental generation (Ba/F3 KIF5B-RET cells [2]) | GI50 [3] [nM] | Ba/F3 FLT3-ITD^F691L Selectivity on parental generation [4]
CC(C)n1nc(-c2ccc(NC(=O)Nc3cc(C(F)(F)F)ccc3F)cc2)c2c(N)ncnc21 [AD80, reference compound] | 2.19 | 370.7 | 11.8 | 68.8
CC(C)n1nc(-c2ccc(CC(=O)Nc3cc(C(C)(C)C(F)(F)F)on3)cc2)c2c(N)ncnc21 [Compound T-1, 2-(4-(4-amino-1-isopropyl-1H-pyrazolo[3,4-d]pyrimidin-3-yl)phenyl)-N-(5-(1,1,1-trifluoro-2-methylprop-2-yl)isoxazol-3-yl)acetamide] | 0.15 | 10802.6 | 7.7 | 210.4
CC(C)n1nc(-c2ccc(NC(=O)Nc3cc(C(C)(C)C(F)(F)F)on3)cc2)c2c(N)ncnc21 [Compound T-2, 1-(4-(4-amino-1-isopropyl-1H-pyrazolo[3,4-d]pyrimidin-3-yl)phenyl)-3-(5-(1,1,1-trifluoro-2-methylprop-2-yl)isoxazol-3-yl)urea] | 0.16 | 2111.4 | 2.93 | 115.3
CC(C)n1cc(-c2ccc(CC(=O)Nc3cc(C(C)(C)C(F)(F)F)on3)cc2)c2c(N)ncnc21 [Compound T-3, 2-(4-(4-amino-7-isopropyl-7H-pyrrolo[2,3-d]pyrimidin-5-yl)phenyl)-N-(5-(1,1,1-trifluoro-2-methylprop-2-yl)isoxazol-3-yl)acetamide] | 0.58 | 1249.0 | 0.97 | 746.8
CC(C)c1nc(-c2ccc(CC(=O)Nc3cc(C(C)(C)C(F)(F)F)on3)cc2)c2c(N)nccn12 [Compound T-4, 2-(4-(8-amino-3-isopropylimidazo[1,5-a]pyrazin-1-yl)phenyl)-N-(5-(1,1,1-trifluoro-2-methylprop-2-yl)isoxazol-3-yl)acetamide] | 1.56 | 449.4 | 16.6 | 42.2
CC(C)c1cc(-c2ccc(CC(=O)Nc3cc(C(C)(C)C(F)(F)F)on3)cc2)c2c(N)ncnn12 [Compound T-5, 2-(4-(4-amino-7-isopropylpyrrolo[2,1-f][1,2,4]triazin-5-yl)phenyl)-N-(5-(1,1,1-trifluoro-2-methylprop-2-yl)isoxazol-3-yl)acetamide] | 2.88 | 1660.8 | 11.4 | 419.6
CC(C)n1nc(-c2ccc(CC(=O)Nc3cc(C(C)(C)C(F)(F)F)on3)c(F)c2)c2c(N)ncnc21 [Compound T-6, 2-(4-(4-amino-1-isopropyl-1H-pyrazolo[3,4-d]pyrimidin-3-yl)-2-fluorophenyl)-N-(5-(1,1,1-trifluoro-2-methylprop-2-yl)isoxazol-3-yl)acetamide] | 0.31 | 6759.6 | 6.26 | 334.7
CC(C)n1nc(-c2ccc(CC(=O)Nc3cc(C(C)(C)C(F)(F)F)on3)cn2)c2c(N)ncnc21 [Compound T-7, 2-(6-(4-amino-1-isopropyl-1H-pyrazolo[3,4-d]pyrimidin-3-yl)pyridin-3-yl)-N-(5-(1,1,1-trifluoro-2-methylprop-2-yl)isoxazol-3-yl)acetamide] | 4.61 | 71.2 | 3.22 | 101.9
CC(C)n1nc(-c2ccc(CC(=O)Nc3cc(C(C)(C)C(F)(F)F)no3)cc2)c2c(N)ncnc21 [Compound T-8, 2-(4-(4-amino-1-isopropyl-1H-pyrazolo[3,4-d]pyrimidin-3-yl)phenyl)-N-(3-(1,1,1-trifluoro-2-methylprop-2-yl)isoxazol-5-yl)acetamide] | 1.03 | 3569.9 | 6.28 | 585.5
CC(C)n1nc(-c2ccc(CC(=O)Nc3cc(C(C)(C)C(F)(F)F)no3)cn2)c2c(N)ncnc21 [Compound T-9, 2-(6-(4-amino-1-isopropyl-1H-pyrazolo[3,4-d]pyrimidin-3-yl)pyridin-3-yl)-N-(3-(1,1,1-trifluoro-2-methylprop-2-yl)isoxazol-5-yl)acetamide] | 10.9 | 377.8 | 28.1 | 146.5
CC(C)c1nc(-c2ccc(CC(=O)Nc3cc(C(C)(C)C(F)(F)F)on3)cc2)c2c(N)ncnn12 [Compound T-10, 2-(4-(4-amino-7-isopropylimidazo[5,1-f][1,2,4]triazin-5-yl)phenyl)-N-(5-(1,1,1-trifluoro-2-methylprop-2-yl)isoxazol-3-yl)acetamide] | 3.68 | 609.2 | 39.1 | 57.3
[2H]C([2H])([2H])C(n1nc(-c2ccc(CC(=O)Nc3cc(C(C)(C)C(F)(F)F)no3)cc2)c2c(N)ncnc21)C([2H])([2H])[2H] [Compound T-11, 2-(4-(4-amino-1-(propan-2-yl-1,1,1,3,3,3-d6)-1H-pyrazolo[3,4-d]pyrimidin-3-yl)phenyl)-N-(3-(1,1,1-trifluoro-2-methylpropan-2-yl)isoxazol-5-yl)acetamide] | 1.3 | 4236.2 | 13.6 | 404.9
[2H]C([2H])([2H])C(n1cc(-c2ccc(CC(=O)Nc3cc(C(C)(C)C(F)(F)F)on3)cc2)c2c(N)ncnc21)C([2H])([2H])[2H] [Compound T-12, 2-(4-(4-amino-7-(propen-2-yl-1,1,1,3,3,d6)-7H-pyrrolo[2,3-d]pyrimidin-5-yl)phenyl)-N-(5-(1,1,1-trifluo-2-methylpropan-2-yl)isoxazol-3-yl)acetamide] | 2.24 | 478.6 | 3.7 | 289.7
